Literature values, collected in patent US11986533B2, “Macromonomers and bottle brush polymers for delivery of biological agents” (Regents of the University of Minnesota, priority 2021, dated 2024).

## O=C1NC(=O)C(c2ccccc2)(c2ccccc2)N1 [phenytoin]
  log P: 2.14
